# Test results reported in patent US4965066A, “Intranasal administration of 3,3-disubstituted indolines” (E. I. Du Pont de Nemours and Company, priority 1989, dated 1990).
# Experiment: in vivo
# Details: rat
# Description: Male Lewis rats weighing approximately 300 g were used. […] This dose was administered by gavage. The nasal dose of (1') was administered to rats after surgical isolation of the nasal cavity. The trachea was cannulated to allow free breathing, and a closed tube was inserted anteriorly through the esophagus to block the posterior part of the nasal cavity. The incisive ducts were closed with an adhesive to prevent drainage into the mouth. The dose was administered through the nares with a microliter syringe via polyethylene tubing. […] Serial blood samples (~0.5 ml) were collected into heparinized test tubes after cutting the tip of the tail. […] Aliquots of the acid were injected onto the HPLC. […] Du Pont) attached to a guard column packed with cyano packing. A liter of mobile phase contained […] of 0.1 M acetate buffer at pH 3.5, 480 ml acetontrile, 5 ml tetrahydrofuran, and 0.75 g sodium heptanesulfonate. […] Detection was by ultraviolet (uv) absorbance at 252 nm. The detection limit was 0.12 μg/ml plasma. […] Systemic bioavailability after oral and nasal doses was calculated for each rat as the ratio of AUC^oral or ^nasal /AUC^iv, using the average AUC^iv and correcting for the differences in dose. Values are expressed as percentage (%) of dose.
compound,measurement,setting,value
O=C1N(c2ccccc2)c2ccccc2C1(Cc1ccncc1)Cc1ccncc1 [1'],Tmax,1 mg/kg,≤ 10 min
same,Bioavailability (F),2 mg/kg,100 % of Dose
same,AUC at 3 h,4 mg/kg,1340 ± 140 ng·h/mL
same,bioavailability,"4 mg/kg, Nasal Bioavailability (F)",53 ± 5.5%
same,AUC at 3 h,"iv, 2 mg/kg",1260 ± 90 ng·h/mL
same,AUC at 3 h,"po, 20 mg/kg",1150 ± 240 ng·h/mL
same,bioavailability,"po, 20 mg/kg, Oral Bioavailability (F)",9.1 ± 1.9%
